The test system of one test is HT1376 cells. The test is described as follows: Cell viability assay. The class given is cell-based.
In another test the test system is T24 cells. The test is described as follows: Cell viability assay. The class given is cell-based. The conditions noted are these: read-out: Cisplatin GI50 (d5), 5-day viability assay.
For a further test, the system named is BFTC905 cells. The test is described as follows: Cell viability assay. In kind it is cell-based. The conditions noted are these: read-out: Cisplatin GI50 (d5), 5-day viability assay.
Another test concerns J82 cells. The test is described as follows: Cell viability assay. The class given is cell-based. The conditions noted are these: read-out: Cisplatin GI50 (d5), 5-day viability assay.
In another test the test system is Cal29 cells. Nature of the test: Cell viability assay. In kind it is cell-based. The conditions noted are these: read-out: Cisplatin GI50 (d5), 5-day viability assay.
The next test relates to UMUC3 cells. The test is described as follows: Cell viability assay. In kind it is cell-based. Particulars: read-out: Cisplatin GI50 (d5), 5-day viability assay.
Another test relates to SCaBER cells. The test is described as follows: Cell viability assay. The class given is cell-based. The conditions noted are these: read-out: Cisplatin GI50 (d5), 5-day viability assay.
In the next test the test system is KMBC2 cells. Nature of the test: Cell viability assay. Particulars: read-out: Cisplatin GI50 (d5), 5-day viability assay. The class given is cell-based.
The subject of a further test is JMSU1 cells. The test is described as follows: Cell viability assay. The conditions noted are these: read-out: Cisplatin GI50 (d5), 5-day viability assay. The class given is cell-based.
A further test concerns TCCSUP cells. Nature of the test: Cell viability assay. The class given is cell-based. Particulars: read-out: Cisplatin GI50 (d5), 5-day viability assay.
A further test relates to SW1710 cells. The test is described as follows: Cell viability assay. In kind it is cell-based. The conditions noted are these: read-out: Cisplatin GI50 (d5), 5-day viability assay.
The subject of the next test is HT1197 cells. Nature of the test: Cell viability assay. In kind it is cell-based. Particulars: read-out: Cisplatin GI50 (d5), 5-day viability assay.
In a further test the test system is RT4 cells. Nature of the test: Cell viability assay. In kind it is cell-based. Particulars: read-out: Cisplatin GI50 (d5), 5-day viability assay.
Test [1] concerns KARPAS-422 xenograft tumors. Nature of the test: KARPAS-422 xenograft efficacy study. In kind it is in vivo. The conditions noted are these: KARPAS-422 mouse xenograft model; 25 mg/kg, PO, QD.
Setting [2] is: read-out: GI50, long-term cell viability assay, HT1376 cells, day 18.

Like-named read-outs stand apart in the source and are kept apart here.

As a reminder, the GI50 is the concentration at which growth is held to half of that of the control.

For the compound `COc1cc(C)[nH]c(=O)c1CN1CCc2c(Cl)cc([C@H](OC)C3COC3)c(Cl)c2C1=O` [PF-06821497], in the test on HT1376 cells (setting [2]), the GI50 is approximately 5 nM.

Turning to `N.N.[Cl][Pt][Cl]` [Cisplatin], the GI50 with T24 cells was determined as 810 nM; in the test on BFTC905 cells it was 760 nM; with J82 cells it was 450 nM; in the test with Cal29 cells it was 3010 nM; in the test with HT1376 cells (read-out: Cisplatin GI50 (d5), HT1376, 5-day viability assay), 1950 nM; in the test with UMUC3 cells, 350 nM. The GI50 came to 1200 nM with SCaBER cells; 3640 nM with KMBC2 cells; 730 nM with JMSU1 cells; 220 nM in the test on TCCSUP cells; 2150 nM with SW1710 cells; 3880 nM with HT1197 cells. Further, the GI50 in the test with RT4 cells worked out at 3050 nM.

As to `Cc1ncccc1-c1cnc(NCc2c(F)ccc3c2CCO3)n2cnnc12` [MAK683], in the test with HT1376 cells (setting [2]), the GI50 came out at 73 nM.

On to `CCN(c1cc(-c2ccc(CN3CCOCC3)cc2)cc(C(=O)NCc2c(C)cc(C)[nH]c2=O)c1C)C1CCOCC1` [Tazemetostat], for which, in test [1], the “tumor response” value is recorded as “modest TGI”.

Values taken from article PMC11292196 (Cancer Research, 2024).
